From patent US12655116B2, “Substituted isophthalic acid diamides” (Bayer Aktiengesellschaft, priority 2020, dated 2026)

What was measured:
VERPE [1] = assay: Post-emergence herbicidal action against VERPE; assay type: in vivo, Veronica persica; conditions: 20 g/ha
How it was run: (§1)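 Foliar application at one-leaf stage of formulated test compounds, aqueous spray at 600–800 l/ha with 0.2% wetting agent. Greenhouse, optimal conditions, ~3 weeks; damage scored visually in % relative to untreated plants.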

SETVI [2] = assay: Pre-emergence herbicidal action against SETVI; assay type: in vivo, Setaria viridis; conditions: dosage 80 g/ha
How it was run: (§2)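 Greenhouse pots of sandy loam held seeds covered with soil, onto which the compound was applied before emergence. An aqueous suspension or emulsion of WP or EC was used at 600 to 800 l/ha with 0.2% wetting agent. Percent damage was judged visually at 3 weeks.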

ALOMY [3] = assay: Post-emergence herbicidal action against ALOMY; assay type: in vivo, Alopecurus myosuroides; conditions: dosage 20 g/ha, visual assessment about 3 weeks after treatment vs untreated controls
How it was run: as §1

VERPE [4] = assay: Pre-emergence herbicidal action against VERPE; assay type: in vivo, Veronica persica; conditions: dosage 80 g/ha
How it was run: as §2

PHBPU [5] = assay: Post-emergence herbicidal action against PHBPU; assay type: in vivo, Pharbitis purpurea
How it was run: as §1

ALOMY [6] = assay: Pre-emergence herbicidal action against ALOMY; assay type: in vivo, Alopecurus myosuroides
How it was run: as §2

AVEFA = assay: Pre-emergence herbicidal action against AVEFA; assay type: in vivo, Avena fatua
How it was run: as §2

ECHCG [7] = assay: Post-emergence herbicidal action against ECHCG; assay type: in vivo, Echinochloa crus-galli
How it was run: as §1

VIOTR [8] = assay: Pre-emergence herbicidal action against VIOTR; assay type: in vivo, Viola tricolor
How it was run: as §2

ABUTH [9] = assay: Pre-emergence herbicidal action against ABUTH; assay type: in vivo, Abutilon theophrasti
How it was run: as §2

MATIN [10] = assay: Pre-emergence herbicidal action against MATIN; assay type: in vivo, Matricaria inodora
How it was run: as §2

ABUTH [11] = assay: Post-emergence herbicidal action against ABUTH; assay type: in vivo, Abutilon theophrasti; conditions: visual assessment about 3 weeks after treatment vs untreated controls
How it was run: as §1

LOLRI = assay: Pre-emergence herbicidal action against LOLRI; assay type: in vivo, Lolium rigidum
Source text: Seeds of monocotyledonous and dicotyledonous weed plants and crop plants are laid out in sandy loam soil in wood-fiber pots and covered with soil. The compounds of the invention, formulated in the form of wettable powders (WP) or as emulsion concentrates (EC), are then applied to the surface of the covering soil in the form of an aqueous suspension or emulsion at a water application rate equivalent to 600 to 800 l/ha, with addition of 0.2% wetting agent. After the treatment, the pots are placed in a greenhouse and kept under good growth conditions for the trial plants. The damage to the test plants is scored visually after a test period of 3 weeks by comparison with untreated controls (herbicidal activity in percent (%): 100% activity=the plants have died, 0% activity=like control plants). […] The tables below illustrate, in an illustrative manner, the post-emergence herbicidal action of the compounds of the invention, the herbicidal activity being stated in percent.

SETVI [12] = assay: Post-emergence herbicidal action against SETVI; assay type: in vivo, Setaria viridis
How it was run: as §1

AMARE [13] = assay: Pre-emergence herbicidal action against AMARE; assay type: in vivo, Amaranthus retroflexus
How it was run: as §2

ECHCG [14] = assay: Pre-emergence herbicidal action against ECHCG; assay type: in vivo, Echinochloa crus-galli
How it was run: as §2

MATIN [15] = assay: Post-emergence herbicidal action against MATIN; assay type: in vivo, Matricaria inodora
How it was run: as §1

VIOTR [16] = assay: Post-emergence herbicidal action against VIOTR; assay type: in vivo, Viola tricolor; conditions: Viola tricolor, 504 h
How it was run: as §1

AMARE [17] = assay: Post-emergence herbicidal action against AMARE; assay type: in vivo, Amaranthus retroflexus; conditions: 20 g/ha, visual assessment about 3 weeks after treatment, 100% = plants have died, 0% = like control plants
How it was run: as §1

PHBPU [18] = assay: Pre-emergence herbicidal action against PHBPU; assay type: in vivo, Pharbitis purpurea; conditions: dosage 80 g/ha
How it was run: as §2

DIGSA [19] = assay: Pre-emergence herbicidal action against DIGSA; assay type: in vivo, Digitaria sanguinalis
How it was run: as §2

DIGSA [20] = assay: Post-emergence herbicidal action against DIGSA; assay type: in vivo, Digitaria sanguinalis; conditions: for Post-emergence action against DIGSA: 20 g/ha
How it was run: as §1

[21] = Tripleurospermum inodorum, 504 h, dosage 20 g/ha
[22] = 80 g/ha, pre-emergence, scored visually after 3 weeks vs untreated controls (100% = plants have died, 0% = like control plants)
[23] = 20 g/ha, scored visually after 3 weeks, 100% = plants have died, 0% = like control plants
[24] = 80 g/ha, scored visually after 3 weeks vs untreated controls (100% = plants have died, 0% = like control plants)
[25] = dosage 20 g/ha, scored visually after 3 weeks vs untreated controls, 100% = plants have died, 0% = like control plants

CSc1c(C(=O)Nc2nnnn2C)ccc(C(F)(F)F)c1C(=O)NC1CC1 [Example 1-83]
100%: pest or weed control at 80 g/ha (SETVI [2]; Setaria viridis, 504 h) | pest or weed control at 20 g/ha (ALOMY [3]; Alopecurus myosuroides, 504 h) | pest or weed control at 80 g/ha (ALOMY [6]; Alopecurus myosuroides, 504 h, 80 g/ha, pre-emergence, scored visually after 3 weeks vs untreated controls (100% = plants have died, 0% = like control plants)) | pest or weed control at 80 g/ha (VIOTR [8]; Viola tricolor, 504 h, dosage 80 g/ha) | pest or weed control at 80 g/ha (ABUTH [9]; Abutilon theophrasti, 504 h, 80 g/ha, scored visually after 3 weeks vs untreated controls (100% = plants have died, 0% = like control plants)) | pest or weed control at 20 g/ha (ABUTH [9]; Abutilon theophrasti, 504 h, dosage 20 g/ha, scored visually after 3 weeks vs untreated controls, 100% = plants have died, 0% = like control plants, read-out: Pre-emergence action against ABUTH (herbicidal activity in percent)) | pest or weed control at 80 g/ha (MATIN [10]; Tripleurospermum inodorum, 504 h, dosage 80 g/ha) | pest or weed control at 20 g/ha (SETVI [12]; Setaria viridis, 504 h, dosage 20 g/ha) | pest or weed control at 80 g/ha (AMARE [13]; Amaranthus retroflexus, 504 h, 80 g/ha, scored visually after 3 weeks vs untreated controls, 100% = plants have died, 0% = like control plants) | pest or weed control at 20 g/ha (AMARE [17]; Amaranthus retroflexus, 504 h)
80%: pest or weed control at 80 g/ha (VERPE [4]; Veronica persica, 504 h) | pest or weed control at 20 g/ha (ALOMY [6]; Alopecurus myosuroides, pre-emergence, 504 h, 20 g/ha, scored visually after 3 weeks, 100% = plants have died, 0% = like control plants) | pest or weed control at 80 g/ha (AVEFA; Avena fatua, 504 h, 80 g/ha, pre-emergence) | pest or weed control at 80 g/ha (LOLRI; Lolium rigidum, 504 h, 80 g/ha) | pest or weed control at 5 g/ha (SETVI [12]; Setaria viridis, 504 h, dosage 5 g/ha) | pest or weed control at 5 g/ha (MATIN [15]; Tripleurospermum inodorum, 504 h, dosage 5 g/ha)
90%: pest or weed control at 20 g/ha (VERPE [1]; Veronica persica, 504 h) | pest or weed control at 20 g/ha (PHBPU [5]; Ipomoea purpurea, 504 h, dosage 20 g/ha) | pest or weed control at 20 g/ha (ECHCG [7]; Echinochloa crus-galli, 504 h, dosage 20 g/ha) | pest or weed control at 20 g/ha (VIOTR [8]; Viola tricolor, 504 h, dosage 20 g/ha) | pest or weed control at 20 g/ha (MATIN [10]; [21]) | pest or weed control at 5 g/ha (ABUTH [11]; Abutilon theophrasti, 504 h, dosage 5 g/ha) | pest or weed control at 20 g/ha (ABUTH [11]; Abutilon theophrasti, 504 h, dosage 20 g/ha) | pest or weed control at 80 g/ha (ECHCG [14]; Echinochloa crus-galli, 504 h, 80 g/ha) | pest or weed control at 20 g/ha (MATIN [15]; [21]) | pest or weed control at 5 g/ha (VIOTR [16]; 5 g/ha) | pest or weed control at 20 g/ha (VIOTR [16]; 20 g/ha)

Cn1nnnc1NC(=O)c1ccc(C(F)F)c(C(=O)NC2CCC2)c1Cl [Example 1-164]
90%: Pre-emergence action against VERPE in % (VERPE [4]) | Post-emergence action against PHBPU in % (PHBPU [5]; dosage 5 g/ha) | Post-emergence action against PHBPU in % (PHBPU [5]; dosage 20 g/ha) | Post-emergence action against ECHCG in % (ECHCG [7]; dosage 20 g/ha) | Post-emergence action at 20 g/ha against AMARE in % (AMARE [17])
100%: Pre-emergence action against PHBPU in % (PHBPU [18]) | Pre-emergence action against ALOMY (herbicidal activity) (ALOMY [6]; [22]) | Pre-emergence action against AVEFA (AVEFA; [23]) | Pre-emergence action against AVEFA in % (AVEFA; 80 g/ha, pre-emergence) | Pre-emergence action against MATIN in % (MATIN [10]; dosage 80 g/ha) | Pre-emergence action against LOLRI in % (LOLRI; 20 g/ha) | Pre-emergence action against LOLRI in % (LOLRI; 80 g/ha) | Pre-emergence action against AMARE in % (AMARE [13]; [24]) | Pre-emergence action against ECHCG in % (ECHCG [14]; 20 g/ha) | Pre-emergence action against ECHCG in % (ECHCG [14]; 80 g/ha)
80%: Post-emergence action against ECHCG in % (ECHCG [7]; dosage 5 g/ha) | Pre-emergence action against DIGSA in % (DIGSA [19]; dosage 80 g/ha) | Pre-emergence action against ABUTH (herbicidal activity) (ABUTH [9]; [24]) | Pre-emergence action against ABUTH (herbicidal activity in percent) (ABUTH [9]; [25]) | Post-emergence action against ABUTH in % (ABUTH [11]; dosage 5 g/ha) | Post-emergence action against ABUTH in % (ABUTH [11]; dosage 20 g/ha) | Post-emergence action against DIGSA (DIGSA [20]) | Post-emergence action against MATIN in % (MATIN [15]; dosage 5 g/ha) | Post-emergence action against MATIN in % (MATIN [15]; dosage 20 g/ha)

COCCNC(=O)c1c(C(F)(F)F)ccc(C(=O)Nc2nnnn2C)c1C [Example 1-34]
100%: Pre-emergence action against SETVI in % (SETVI [2]) | Pre-emergence action against VERPE in % (VERPE [4]) | Pre-emergence action against ALOMY (herbicidal activity) (ALOMY [6]; [22]) | Pre-emergence action against VIOTR in % (VIOTR [8]; dosage 20 g/ha) | Pre-emergence action against VIOTR in % (VIOTR [8]; dosage 80 g/ha) | Pre-emergence action against DIGSA in % (DIGSA [19]; dosage 20 g/ha) | Pre-emergence action against DIGSA in % (DIGSA [19]; dosage 80 g/ha) | Pre-emergence action against ABUTH (herbicidal activity) (ABUTH [9]; [24]) | Post-emergence action against ABUTH in % (ABUTH [11]; dosage 20 g/ha) | Pre-emergence action against AMARE in % (AMARE [13]; 20 g/ha, scored visually after 3 weeks vs untreated controls, 100% = plants have died, 0% = like control plants) | Pre-emergence action against AMARE in % (AMARE [13]; [24]) | Post-emergence action at 20 g/ha against AMARE in % (AMARE [17])
90%: Post-emergence action against VERPE in % (VERPE [1]) | Post-emergence action against ALOMY in % (ALOMY [3]) | Post-emergence action against PHBPU in % (PHBPU [5]; dosage 5 g/ha) | Post-emergence action against PHBPU in % (PHBPU [5]; dosage 20 g/ha) | Post-emergence action against ECHCG in % (ECHCG [7]; dosage 5 g/ha) | Post-emergence action against ECHCG in % (ECHCG [7]; dosage 20 g/ha) | Pre-emergence action against MATIN in % (MATIN [10]; dosage 80 g/ha) | Post-emergence action against ABUTH in % (ABUTH [11]; dosage 5 g/ha) | Post-emergence action against DIGSA (DIGSA [20]) | Post-emergence action against SETVI in % (SETVI [12]; dosage 20 g/ha) | Pre-emergence action against ECHCG in % (ECHCG [14]; 80 g/ha)
80%: Pre-emergence action against ALOMY (ALOMY [6]; [23]) | Pre-emergence action against ABUTH (herbicidal activity in percent) (ABUTH [9]; [25]) | Pre-emergence action against LOLRI in % (LOLRI; 80 g/ha) | Post-emergence action against DIGSA in % (DIGSA [20]; 5 g/ha) | Post-emergence action against SETVI in % (SETVI [12]; dosage 5 g/ha)
